According to patent US6362369B1, “Phthalic acid diamide derivatives fluorine-containing aniline compounds as starting material, agricultural and horticultural insecticides, and a method for application of the insecticides” (Nihon Nohyaku Co., Ltd., priority 1997, dated 2002):

Key:
Type in all cases: in vivo
[1] = system: rice leafroller (Cnaphalocrocis medinalis); test: Insecticidal effect on rice leafroller (Test Example 3); conditions: 500 ppm, 25° C., humidity 70%; for Insecticidal effect, Test Example 3: rice lamina immersed; for Insecticidal effect, Test Example 3 / Insecticidal effect on rice leafroller (Test Example 3), judged grade: four days after inoculation; for Insecticidal effect (Test Example 3), judged from mortality / Insecticidal effect on rice leafroller (Test Example 3), judged grade: rice lamina dip; for Insecticidal effect (Test Example 3), judged from mortality: 4 days after inoculation; for Insecticidal effect on rice leafroller (Test Example 3), judged grade: third-instar larvae
Procedure, shortened: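 Groups of 10 third-instar larvae, in triplicate, are placed on air-dried lamina resting on wet filter paper. Incubation runs four days at 25° C with 70% humidity before survivors and dead are tallied.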

[2] = system: common cutworm (Spodoptera Litura); test: Insecticidal effect on common cutworm (Test Example 2); conditions: 500 ppm, 25° C.; for Insecticidal effect, Test Example 2: cabbage leaf immersed; for Insecticidal effect, Test Example 2 / Insecticidal effect on common cutworm (Test Example 2), judged grade: eight days after inoculation; for Insecticidal effect (Test Example 2), judged from mortality / Insecticidal effect on common cutworm (Test Example 2), judged grade: cabbage leaf dip; for Insecticidal effect (Test Example 2), judged from mortality: 8 days after inoculation; for Insecticidal effect on common cutworm (Test Example 2), judged grade: second-instar larvae
Procedure, shortened: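 Insecticidal effect was rated from percent mortality of second-instar larvae exposed to air-dried treatment at 25° C for 8 days.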

[3] = system: diamondback moth (Plutella xylostella); test: Insecticidal effect on diamondback moth (Test Example 1); conditions: for Insecticidal effect, Test Example 1 / Insecticidal effect (Test Example 1), judged from mortality: diamondback moth; for Insecticidal effect (Test Example 1), judged from mortality: judged by the criterion of Test Example 1; for Insecticidal effect on diamondback moth (Test Example 1), judged grade: mortality judged according to the criterion shown in Test Example 1
Procedure, shortened: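 Chinese cabbage seedlings carrying eggs laid by released adult moths were immersed in treatment, air-dried and held at 25° C. Hatched insects were counted six days after immersion, and mortality was calculated and scored against a fixed criterion. Three replicate groups of 10 insects were used.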

[4] = rice leafroller third-instar larvae
[5] = common cutworm second-instar larvae
[6] = mortality judged by criterion of Test Example 1
[7] = third-instar larvae of rice leafroller
[8] = second-instar larvae of common cutworm
[9] = judged by the mortality criterion of Test Example 1

CC(C)(C)NC(=O)c1c(I)cccc1C(=O)Nc1ccc(C(F)(F)F)cc1 [compound 939]
Insecticidal effect, Test Example 3 [1, 4]: A (100)
Insecticidal effect, Test Example 2 [2, 5]: A (100)
Insecticidal effect, Test Example 1 [3, 6]: A (100)

CC(C)NC(=O)c1c(Cl)cccc1C(=O)Nc1ccc(F)c(F)c1F [compound 116]
Insecticidal effect, Test Example 3 [1, 7]: A (100)
Insecticidal effect, Test Example 2 [2, 8]: D (79-50)
Insecticidal effect, Test Example 1 [3, 9]: A (100)

Cc1cccc(NC(=O)c2c(Cl)cccc2C(=O)NC(C)C)c1C [compound 213]
Insecticidal effect, Test Example 3 [1, 7]: A (100)
Insecticidal effect, Test Example 2 [2, 8]: A (100)
Insecticidal effect, Test Example 1 [3, 9]: A (100)

COCCNC(=O)c1c(I)cccc1C(=O)Nc1ccc(C(F)(F)C(F)(F)F)cc1C [compound 981]
Insecticidal effect, Test Example 3 [1, 4]: A (100)
Insecticidal effect, Test Example 2 [2, 5]: A (100)
Insecticidal effect, Test Example 1 [3, 6]: A (100)

Cc1cc(C(F)(F)C(F)(F)C(F)(F)C(F)(F)C(F)(F)C(F)(F)F)ccc1NC(=O)c1cccc(Cl)c1C(=O)NC(C)C [compound 133]
Insecticidal effect, Test Example 3 [1, 7]: A (100)
Insecticidal effect, Test Example 2 [2, 8]: A (100)
Insecticidal effect, Test Example 1 [3, 9]: A (100)

CCc1cc(C(F)(F)C(F)(F)F)ccc1NC(=O)c1cccc(F)c1C(=O)N(CC)CC [compound 1549]
Insecticidal effect (Test Example 3), judged from mortality [1, 7]: A (100)
Insecticidal effect (Test Example 2), judged from mortality [2, 8]: D (79-50)
Insecticidal effect (Test Example 1), judged from mortality [3]: A (100)

Cc1cc(C(F)(F)C(F)(F)F)c(Cl)cc1NC(=O)c1cccc(I)c1C(=O)NC(C)(C)C [compound 1654]
Insecticidal effect (Test Example 3), judged from mortality [1, 7]: A (100)
Insecticidal effect (Test Example 2), judged from mortality [2, 8]: A (100)
Insecticidal effect (Test Example 1), judged from mortality [3]: A (100)

Cc1cc(OCC(F)(F)C(F)F)ccc1NC(=O)c1c(Cl)cccc1C(=O)NC(C)C [compound 230]
Insecticidal effect, Test Example 3 [1, 7]: A (100)
Insecticidal effect, Test Example 2 [2, 8]: C (89-80)
Insecticidal effect, Test Example 1 [3, 9]: A (100)

CC(C)NC(=O)c1c(I)cccc1C(=O)Nc1ccc(C(F)(F)C(F)(F)C(F)(F)F)cc1 [compound 350]
Insecticidal effect, Test Example 3 [1, 7]: A (100)
Insecticidal effect, Test Example 2 [2, 8]: A (100)
Insecticidal effect, Test Example 1 [3, 9]: A (100)

CON=C(C)c1ccc(NC(=O)c2cccc(I)c2C(=O)NC(C)C)cc1 [compound 1737]
Insecticidal effect (Test Example 3), judged from mortality [1, 7]: A (100)
Insecticidal effect (Test Example 2), judged from mortality [2, 8]: C (89-80)
Insecticidal effect (Test Example 1), judged from mortality [3]: A (100)

CC(C)NC(=O)c1cccc(Cl)c1C(=O)Nc1ccc(OC(F)(F)C(F)OC(F)(F)C(F)(F)C(F)(F)F)cc1 (stereo not drawn) [compound 201]
Insecticidal effect, Test Example 3 [1, 7]: A (100)
Insecticidal effect, Test Example 2 [2, 8]: B (99-90)
Insecticidal effect, Test Example 1 [3, 9]: A (100)

COCC(C)NC(=O)c1c(C(=O)Nc2ccc(OC(F)F)cc2C)cccc1[N+](=O)[O-] (stereo not drawn) [compound 874]
Insecticidal effect on rice leafroller (Test Example 3), judged grade [1]: A (100)
Insecticidal effect on common cutworm (Test Example 2), judged grade [2]: C (89-80)
Insecticidal effect on diamondback moth (Test Example 1), judged grade [3]: A (100)

Cc1cc(NC(=O)c2cccc(I)c2C(=O)NC(C)(C)C)ccc1C(F)(F)C(F)(F)F [compound 1552]
Insecticidal effect (Test Example 3), judged from mortality [1, 7]: A (100)
Insecticidal effect (Test Example 2), judged from mortality [2, 8]: A (100)
Insecticidal effect (Test Example 1), judged from mortality [3]: A (100)

Cc1cc(C(F)(F)C(F)(F)F)ccc1NC(=O)c1ccc(Cl)cc1C(=O)NC(C)(C)C [compound 1278]
Insecticidal effect, Test Example 3 [1, 4]: A (100)
Insecticidal effect, Test Example 2 [2, 5]: A (100)
Insecticidal effect, Test Example 1 [3, 6]: A (100)

Cc1cc(C(F)(F)C(F)(F)F)ccc1NC(=O)c1cccc(I)c1C(=O)NC(C)(C)CCl [compound 1646]
Insecticidal effect (Test Example 3), judged from mortality [1, 7]: A (100)
Insecticidal effect (Test Example 2), judged from mortality [2, 8]: A (100)
Insecticidal effect (Test Example 1), judged from mortality [3]: A (100)

Cc1cc(C(F)(F)C(F)(F)F)ccc1NC(=O)c1c(I)cccc1C(=O)NCC(F)(F)F [compound 1041]
Insecticidal effect, Test Example 3 [1, 4]: A (100)
Insecticidal effect, Test Example 2 [2, 5]: A (100)
Insecticidal effect, Test Example 1 [3, 6]: A (100)

CC(C)NC(=O)c1c(C(=O)Nc2ccc(SC(F)F)cc2)cccc1[N+](=O)[O-] [compound 625]
Insecticidal effect on rice leafroller (Test Example 3), judged grade [1]: D (79-50)
Insecticidal effect on common cutworm (Test Example 2), judged grade [2]: D (79-50)
Insecticidal effect on diamondback moth (Test Example 1), judged grade [3]: A (100)

Cc1cc(OC(F)F)ccc1NC(=O)c1cccc(S(C)(=O)=O)c1C(=O)NC(C)C [compound 795]
Insecticidal effect on rice leafroller (Test Example 3), judged grade [1]: A (100)
Insecticidal effect on common cutworm (Test Example 2), judged grade [2]: B (99-90)
Insecticidal effect on diamondback moth (Test Example 1), judged grade [3]: A (100)

CC(C)NC(=O)c1c(Cl)cccc1C(=O)Nc1ccc2c(c1)OC(F)(F)O2 [compound 1101]
Insecticidal effect, Test Example 3 [1, 4]: A (100)
Insecticidal effect, Test Example 2 [2, 5]: C (89-80)
Insecticidal effect, Test Example 1 [3, 6]: A (100)

CSc1cccc(C(=O)Nc2cccc(Cl)c2C)c1C(=O)NC(C)C [compound 780]
Insecticidal effect on rice leafroller (Test Example 3), judged grade [1]: A (100)
Insecticidal effect on common cutworm (Test Example 2), judged grade [2]: A (100)
Insecticidal effect on diamondback moth (Test Example 1), judged grade [3]: A (100)

Cc1cc(OC(F)(F)C(F)OC(F)(F)F)ccc1NC(=O)c1ccccc1C(=O)NC(C)C (stereo not drawn) [compound 67]
Insecticidal effect, Test Example 3 [1, 7]: A (100)
Insecticidal effect, Test Example 2 [2, 8]: A (100)
Insecticidal effect, Test Example 1 [3, 9]: A (100)

CC(C)(C)NC(=O)c1c(I)cccc1C(=O)Nc1ccc(Cl)c2c1OC(F)(F)O2 [compound 1747]
Insecticidal effect (Test Example 3), judged from mortality [1, 7]: A (100)
Insecticidal effect (Test Example 2), judged from mortality [2, 8]: C (89-80)
Insecticidal effect (Test Example 1), judged from mortality [3]: A (100)

COc1cc(NC(=O)c2cccc([N+](=O)[O-])c2C(=O)NC(C)C)cc(C(F)(F)F)c1 [compound 691]
Insecticidal effect on rice leafroller (Test Example 3), judged grade [1]: C (89-80)
Insecticidal effect on common cutworm (Test Example 2), judged grade [2]: D (79-50)
Insecticidal effect on diamondback moth (Test Example 1), judged grade [3]: A (100)

Cc1cc(OC(F)F)ccc1NC(=O)c1ccccc1C(=O)NC(C)(C)C [compound 1018]
Insecticidal effect, Test Example 3 [1, 4]: A (100)
Insecticidal effect, Test Example 2 [2, 5]: D (79-50)
Insecticidal effect, Test Example 1 [3, 6]: A (100)

CC(C)NC(=O)c1c(Cl)cccc1C(=O)Nc1ccc(F)cc1Cl [compound 114]
Insecticidal effect, Test Example 3 [1, 7]: A (100)
Insecticidal effect, Test Example 2 [2, 8]: A (100)
Insecticidal effect, Test Example 1 [3, 9]: A (100)
